Measurements from patent US11549123B2, “Plant EPSP synthases and methods of use” (PIONEER HI-BRED INTERNATIONAL, INC., priority 2015, dated 2023).

Key:
[1] = tested on: Glycine max (93Y21) hairy root; experiment: Hairy root growth from transformed soybean cotyledons with or without 25 uM glyphosate; type: cell-based; conditions: medium containing 25 uM glyphosate
[2] = biological target: Zea mays EPSPS variant WT-FS-B (103I 107S 278G 338S) (Zea mays, UniProt O24566, A337S/P106S/T102I/T277G); experiment: EPSPS substrate saturation kinetics, WT-FS-B; type: biochemical
Zea mays EPSPS variant WT-FS-B (103I 107S 278G 338S), sequence (O24566 entry or part of it T102I/P106S/T277G/A337S): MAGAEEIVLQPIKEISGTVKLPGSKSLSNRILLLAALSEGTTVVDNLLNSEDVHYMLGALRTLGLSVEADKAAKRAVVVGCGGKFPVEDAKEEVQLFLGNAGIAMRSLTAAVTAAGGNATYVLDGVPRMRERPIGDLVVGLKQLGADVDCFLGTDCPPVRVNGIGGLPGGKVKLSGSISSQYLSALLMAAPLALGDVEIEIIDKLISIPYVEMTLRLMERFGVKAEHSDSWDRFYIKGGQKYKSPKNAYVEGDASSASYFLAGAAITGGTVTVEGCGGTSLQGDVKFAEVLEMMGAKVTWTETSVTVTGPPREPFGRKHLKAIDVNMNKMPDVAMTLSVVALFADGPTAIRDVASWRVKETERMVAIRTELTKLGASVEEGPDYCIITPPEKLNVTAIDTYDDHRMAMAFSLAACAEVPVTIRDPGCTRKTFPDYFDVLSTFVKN
Method: (§1) EPSPS activity was determined by quantifying the phosphate generated from the EPSPS reaction. Release of inorganic phosphate was coupled to reaction with 2-amino-6-mercapto-7-methylpurine ribonucleoside, catalyzed by purine-nucleoside phosphorylase (M R Webb, Proc. Natl. Acad. Sci. 89:4884-4887, 1992). The absorbance change that occurs was monitored at 360 nm, where the extinction is 11,200 M^−1 cm^−1, with a Spectramax plate reader (Molecular Devices). To determine kinetic parameters, the varied substrate was present at seven concentrations (the eighth being the blank, containing no substrate) ranging from 4 to 400 uM and the unvaried substrate present at saturation. […] Reactions were monitored with a Spectramax plate reader. […] KI was then calculated from the following form of the Michaelis-Menten equation for competitive inhibition: KI=KM[I]/(KM app−KM) KM approximates the dissociation constant of the enzyme-substrate complex while kcat is the rate of conversion of substrate to product when the substrate concentration is saturating. kcat/KM is a widely accepted parameter for catalytic efficiency when substrate concentration is low (˜KM). […] The parameter kcat/KM×KI is used to quantify both catalytic efficiency and insensitivity and thus the overall fitness of the enzyme. […]

[3] = biological target: Zea mays EPSPS variant WT-FS-D (101S 107L 302S 338S) (Zea mays, UniProt O24566, A100S/A337S/E301S/P106L); experiment: EPSPS substrate saturation kinetics, WT-FS-D; type: biochemical
Zea mays EPSPS variant WT-FS-D (101S 107L 302S 338S), sequence (O24566 entry or part of it A100S/P106L/E301S/A337S): as the sequence (O24566 entry or part of it T102I/P106S/T277G/A337S) above, with A101S, I103T, S107L, G278T, E302S counted along it
Method: as §1

[4] = biological target: Zea mays EPSPS variant 311S (Zea mays, UniProt O24566, P310S); experiment: EPSPS reaction rate with or without 10 uM glyphosate, 311S; type: biochemical; conditions: pH 7; read-out: Reaction rate with 10 μM glyph, % no glyph; also: 50 µM PEP and S3P
Zea mays EPSPS variant 311S, sequence (O24566 entry or part of it P310S): as the sequence (O24566 entry or part of it T102I/P106S/T277G/A337S) above, with I103T, S107P, G278T, P311S, S338A counted along it

[5] = biological target: Zea mays EPSPS variant 202R (Zea mays, UniProt O24566, I201R); experiment: EPSPS reaction rate with or without 10 uM glyphosate, 202R; type: biochemical; conditions: pH 7; read-out: Reaction rate with 10 μM glyph, % no glyph; also: 50 µM PEP and S3P
Zea mays EPSPS variant 202R, sequence (O24566 entry or part of it I201R): as the sequence (O24566 entry or part of it T102I/P106S/T277G/A337S) above, with I103T, S107P, I202R, G278T, S338A counted along it

[6] = biological target: T1, Zea mays EPSPS variant Zm-P107S (Zea mays, UniProt O24566, P106S); experiment: Rapid two-rate method for (kcat/KM)*KI, Zm-P107S; type: biochemical
T1 construct: native maize plus P107S; E. coli BL21(DE3), Ni-NTA purified
T1 sequence (O24566 with tags, fused parts or gaps P106S): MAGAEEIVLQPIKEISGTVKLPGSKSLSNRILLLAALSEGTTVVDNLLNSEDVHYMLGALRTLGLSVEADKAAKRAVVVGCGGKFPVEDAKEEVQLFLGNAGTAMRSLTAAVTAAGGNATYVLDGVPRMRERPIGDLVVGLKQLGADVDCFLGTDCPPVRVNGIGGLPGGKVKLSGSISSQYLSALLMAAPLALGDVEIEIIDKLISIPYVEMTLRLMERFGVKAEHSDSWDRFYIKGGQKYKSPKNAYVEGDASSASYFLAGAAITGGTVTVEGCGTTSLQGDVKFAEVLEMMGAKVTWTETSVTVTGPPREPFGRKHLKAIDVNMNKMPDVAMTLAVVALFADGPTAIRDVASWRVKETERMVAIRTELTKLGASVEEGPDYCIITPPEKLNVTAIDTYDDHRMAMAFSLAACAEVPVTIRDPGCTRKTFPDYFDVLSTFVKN
From the text: There are several practical considerations for accurately estimating (kcat/KM)*KI with the rapid method. […] 2) The inhibitor concentration must be adjusted so as to obtain a degree of inhibition that minimally amplifies the error in the term v0-vi in Equation 3. If inhibition is too little, v0-vi will be small, and the error in the multiplier vi×v0/(v0-vi) will be large. […] 3) Substrate concentration should be set at the approximate KM of the parental variant(s), subject to the sensitivity of the assay. High substrate concentration obscures sensitivity to the inhibitor and reduces stringency for capturing improvements in KM. Depending on the necessity for speed, there exists opportunity for customizing enzyme and inhibitor concentrations. […] The rapid method was repeated for those and obtained data that correlated better with data obtained by substrate saturation analysis. For screening purposes however, that correlation step is not necessary. Conditions can be set so that variants with a pre-determined minimal fitness level are accurately quantified.
In Table 15, parameters above the heavy line for the rapid method were obtained under standard conditions. For variants shown below the heavy line, the rapid analysis was repeated with enzyme or glyphosate concentrations adjusted as needed to generate sufficient signal within the limits for linear initial rates.

[7] = PEP as substrate, glyphosate as inhibitor

O=C(O)CNCP(=O)(O)O [glyphosate, N-phosphonomethylglycine]
root growth of untransformed cotyledons [1]: no growth | Ki [2]: 552 µM | (kcat/KM)*KI [2, 7]: 1971 | Ki [3]: 3.81 µM | (kcat/KM)*KI [3, 7]: 346 | activity at 10 µM [4]: 4.37% | activity at 10 µM [5]: 7.48% | (kcat/KM)*KI ([6]; rapid method repeated, [E] 0.007 uM, [Gly] 5 uM): 40 | (kcat/KM)*KI ([6]; rapid method, [E] 0.07 uM, [Gly] 1000 uM): 72
